# Biological target: recombinantly expressed human PARP-1 enzyme (Homo sapiens, UniProt P09874)
# Test: PARP enzyme assay (half-maximum inhibitor concentration)
# Format: biochemical
# Conditions: DNA-activated PARP-1, 200 μM NAD, tritium-labeled NAD incorporation, room temperature, 1 hour, pH 8.0
# Description: Pharmacological Investigations PARP Enzyme Assay
# The half-maximum inhibitor concentration is determined by incubating the substances to be tested with the DNA-activated, recombinantly expressed and purified PARP-1 enzyme. Specifically, various concentrations of the test substance are incubated in 50 μl of reaction solution, which contains 50 mM Tris, 5 mM MgCl2, 1 mM DTT, 200 μM NAD, 0.1 mCi/ml tritium-labeled NAD, 0.1 mg/ml DNA, 0.1 mg/ml histones, 2 μg/ml recombinantly expressed human PARP-1 enzyme, pH=8.0, at room temperature for 1 hour. The reaction is stopped by adding 150 μl of 20% trichloroacetic acid, and the radiolabeled protein constituents are precipitated. After incubation on ice for 10 minutes, the labeled, insoluble constituents are separated off through a glass fiber filter and, after washing with 20% trichloroacetic acid three times, the radioactivity incorporated by the PARP-1 enzyme is measured by radioluminescence.
# IC-50 values were determined in this way for the following compounds: […]
# recombinantly expressed human PARP-1 enzyme, sequence (P09874 whole entry): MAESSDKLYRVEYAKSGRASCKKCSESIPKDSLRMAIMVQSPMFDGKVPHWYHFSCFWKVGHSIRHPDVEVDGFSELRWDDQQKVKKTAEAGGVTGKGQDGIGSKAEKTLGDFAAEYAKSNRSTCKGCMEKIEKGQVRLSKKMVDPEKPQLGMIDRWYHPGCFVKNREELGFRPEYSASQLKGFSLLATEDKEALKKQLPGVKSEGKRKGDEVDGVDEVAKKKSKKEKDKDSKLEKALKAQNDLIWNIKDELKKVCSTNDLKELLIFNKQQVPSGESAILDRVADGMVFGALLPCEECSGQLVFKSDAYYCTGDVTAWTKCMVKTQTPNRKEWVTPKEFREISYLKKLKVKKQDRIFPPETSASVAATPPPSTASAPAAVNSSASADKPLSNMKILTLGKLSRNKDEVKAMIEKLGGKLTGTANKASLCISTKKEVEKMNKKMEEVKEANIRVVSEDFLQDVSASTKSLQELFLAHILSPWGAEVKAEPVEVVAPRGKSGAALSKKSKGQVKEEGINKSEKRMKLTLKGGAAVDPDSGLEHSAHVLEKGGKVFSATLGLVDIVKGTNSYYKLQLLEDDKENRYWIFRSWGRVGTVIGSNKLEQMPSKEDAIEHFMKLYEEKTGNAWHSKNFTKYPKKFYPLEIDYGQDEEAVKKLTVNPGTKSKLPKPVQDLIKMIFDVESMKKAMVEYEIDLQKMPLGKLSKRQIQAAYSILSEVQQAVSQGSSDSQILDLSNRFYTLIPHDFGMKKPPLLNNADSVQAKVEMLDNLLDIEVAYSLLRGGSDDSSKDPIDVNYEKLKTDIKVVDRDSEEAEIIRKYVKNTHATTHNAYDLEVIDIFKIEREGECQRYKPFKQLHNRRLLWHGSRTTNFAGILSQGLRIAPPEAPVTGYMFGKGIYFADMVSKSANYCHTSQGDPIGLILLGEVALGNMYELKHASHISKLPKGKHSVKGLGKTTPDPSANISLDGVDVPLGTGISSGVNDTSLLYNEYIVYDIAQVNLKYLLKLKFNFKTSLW
row,Compound,IC50 [nM]
1,"CC(=O)Nc1cccc(Nc2c(C)[nH]c(=O)c3c2CCCC3)c1 [Example 17, N-[3-(3-methyl-1-oxo-1,2,5,6,7,8-hexahydroisoquinolin-4-ylamino)-phenyl]acetamide]",140
2,"4-[5-({[4-(4-fluorophenyl)-piperazin-1-yl]-5,6,7,8-tetrahydro-2H-isoquinolin-1-one [Example 71]",1240
3,"O=C(NCCNc1ncccn1)c1cncc(-c2c[nH]c(=O)c3c2CCCC3)c1 [Example 33, 5-(1-oxo-1,2,5,6,7,8-hexahydroisoquinolin-4-yl)-N-[2-(pyrimidin-2-ylamino)ethyl]nicotinamide]",3690
4,"CNC(=O)c1cccc(Nc2c[nH]c(=O)c3c2CCCC3)c1 [Example 2, N-methyl-3-(1-oxo-1,2,5,6,7,8-hexahydroisoquinolin-4-ylamino)-benzamide]",270
5,"Cc1nn(C)c(C)c1CNC(=O)c1cncc(-c2c[nH]c(=O)c3c2CCCC3)c1 [Example 35, 5-(1-oxo-1,2,5,6,7,8-hexahydroisoquinolin-4-yl)-N-(1,3,5-trimethyl-1H-pyrazol-4-ylmethyl)-nicotinamide]",6880
6,"O=C(c1cccc(Nc2c[nH]c(=O)c3c2CCCC3)c1)N1CCN(CC2CC2)CC1 [Example 22, 4-[3-(4-Cyclopropylmethylpiperazine-1-carbonyl)phenylamino]-5,6,7,8-tetrahydro-2H-isoquinolin-1-one]",330
7,"Cc1cnc(CNC(=O)c2cncc(-c3c[nH]c(=O)c4c3CCCC4)c2)cn1 [Example 39, N-(5-methylpyrazin-2-ylmethyl)-5-(1-oxo-1,2,5,6,7,8-hexahydroisoquinolin-4-yl)nicotinamide]",5890
8,"O=C(c1cncc(-c2c[nH]c(=O)c3c2CCCC3)c1)N1CCC(c2ccncc2)C1 (stereo not drawn) [Example 36, 4-[5-(3-pyridin-4-ylpyrrolidine-1-carbonyl)pyridin-3-yl]-5,6,7,8-tetrahydro-2H-isoquinolin-1-one]",420
9,"CC(=O)Nc1cccc(Nc2c[nH]c(=O)c3c2CCCC3)c1 [Example 5, N-[3-(1-oxo-1,2,5,6,7,8-hexahydroisoquinolin-4-ylamino)-phenyl]acetamide]",390
10,"O=c1[nH]cc(Nc2cccc(O)c2)c2c1CCCC2 [Example 1, 4-(3-hydroxyphenylamino)-5,6,7,8-tetrahydro-2H-isoquinolin-1-one]",1310
11,"O=C(NCCc1ccccc1)c1cncc(-c2c[nH]c(=O)c3c2CCCC3)c1 [Example 27, 5-(1-oxo-1,2,5,6,7,8-hexahydroisoquinolin-4-yl)-N-phenethyl-nicotinamide]",2540
12,"O=C(NCCc1cccnc1)c1cncc(-c2c[nH]c(=O)c3c2CCCC3)c1 [Example 40, 5-(1-oxo-1,2,5,6,7,8-hexahydroisoquinolin-4-yl)-N-(2-pyridin-3-ylethyl)nicotinamide]",4690
13,"CC(=O)c1cccc(Nc2c[nH]c(=O)c3c2CCCC3)c1 [Example 15, 4-(3-acetylphenylamino)-5,6,7,8-tetrahydro-2H-isoquinolin-1-one]",690
14,"CCCCNC(=O)c1cccc(Nc2c[nH]c(=O)c3c2CCCC3)c1 [Example 20, N-Butyl-3-(1-oxo-1,2,5,6,7,8-hexahydroisoquinolin-4-ylamino)benzamide]",1280
15,"Cc1[nH]c(=O)c2c(c1Nc1cccc(S(C)(=O)=O)c1)CCCC2 [Example 7, 4-(3-methanesulfonylphenyl-amino)-3-methyl-5,6,7,8-tetrahydro-2H-isoquinolin-1-one]",300

# Continued, values first:
row,IC50 [nM],Compound
1,3770,"CC(=O)Nc1ccc(S(=O)(=O)NCc2ccc(-c3c[nH]c(=O)c4c3CCCC4)o2)cc1 [Example 87, N-(4-{[5-(1-oxo-1,2,5,6,7,8-hexahydroisoquinolin-4-yl)furan-2-ylmethyl]sulfamoyl}phenyl)acetamide]"
2,420,"O=c1[nH]cc(-c2ccc(CNCCN3CCCC3)o2)c2c1CCCC2 [Example 57, 4-{5-[(2-pyrrolidin-1-ylethylamino)-methyl]furan-2-yl}-5,6,7,8-tetrahydro-2H-isoquinolin-1-one]"
3,240,"O=c1[nH]cc(-c2ccc(CN3CCC(O)C3)o2)c2c1CCCC2 (stereo not drawn) [Example 63, 4-[5-(3-hydroxypyrrolidin-1-ylmethyl)furan-2-yl]-5,6,7,8-tetrahydro-2H-isoquinolin-1-one]"
4,1630,"O=c1[nH]cc(-c2ccc(CNS(=O)(=O)c3ccc(Oc4ccccn4)cc3)o2)c2c1CCCC2 [Example 85, N-[5-(1-oxo-1,2,5,6,7,8-hexahydroisoquinolin-4-yl)furan-2-ylmethyl]-4-(pyridin-2-yloxy)benzenesulfonamide]"
5,240,"CCCCNCc1ccc(-c2c(C)[nH]c(=O)c3c2CCCC3)o1 [Example 53, 4-(5-butylaminomethylfuran-2-yl)-3-methyl-5,6,7,8-tetrahydro-2H-isoquinolin-1-one]"
6,3070,"O=C(NCc1ccncc1)c1cncc(-c2c[nH]c(=O)c3c2CCCC3)c1 [Example 48, 5-(1-oxo-1,2,5,6,7,8-hexahydroisoquinolin-4-yl)-N-pyridin-4-ylmethylnicotinamide]"
7,340,"O=c1[nH]cc(-c2ccc(CNCc3nc4ccccc4[nH]3)o2)c2c1CCCC2 [Example 68, 4-(5-{[(1H-benzimidazol-2-ylmethyl)amino]methyl}furan-2-yl)-5,6,7,8-tetrahydro-2H-isoquinolin-1-one]"
8,790,"O=C(NCc1ccc(-c2c[nH]c(=O)c3c2CCCC3)o1)c1cccnc1 [Example 84, N-[5-(1-oxo-1,2,5,6,7,8-hexahydroisoquinolin-4-yl)furan-2-ylmethyl]nicotinamide]"
9,1530,"O=c1[nH]cc(-c2ccc(CNCc3ccccn3)o2)c2c1CCCC2 [Example 62, 4-(5-{[(pyridin-2-ylmethyl)amino]-methyl}furan-2-yl)-5,6,7,8-tetrahydro-2H-isoquinolin-1-one]"
10,460,"O=C(NCc1ccc(-c2c[nH]c(=O)c3c2CCCC3)o1)c1ccco1 [Example 82, N-[5-(1-oxo-1,2,5,6,7,8-hexahydroisoquinolin-4-yl)furan-2-ylmethyl]furan-2-carboxamide]"
11,1450,"O=c1[nH]cc(-c2ccc(CN3CCN(c4ncccn4)CC3)o2)c2c1CCCC2 [Example 56, 4-[5-(4-pyrimidin-2-ylpiperazin-1-ylmethyl)furan-2-yl]-5,6,7,8-tetrahydro-2H-isoquinolin-1-one]"
12,460,"CN(C)CCNCc1ccc(-c2c[nH]c(=O)c3c2CCCC3)o1 [Example 65, 4-{5-[(2-dimethylaminoethyl-amino)methyl]furan-2-yl}-5,6,7,8-tetrahydro-2H-isoquinolin-1-one]"
13,510,"CC(=O)Nc1ccc(CNCc2ccc(-c3c[nH]c(=O)c4c3CCCC4)o2)cc1 [Example 75, N-[4-({[5-(1-oxo-1,2,5,6,7,8-hexahydroisoquinolin-4-yl)furan-2-ylmethyl]amino}methyl)phenyl]-acetamide]"
14,110,"O=c1[nH]cc(-c2ccc(CN3CCCC3)o2)c2c1CCCC2 [Example 61, 4-(5-pyrrolidin-1-ylmethylfuran-2-yl)-5,6,7,8-tetrahydro-2H-isoquinolin-1-one]"
15,1180,"CN(Cc1ccc(-c2c[nH]c(=O)c3c2CCCC3)o1)Cc1nc2c(s1)CCCC2 [Example 66, 4-(5-{[methyl-(4,5,6,7-tetrahydro-benzothiazol-2-ylmethyl)amino]-methyl}furan-2-yl)-5,6,7,8-tetrahydro-2H-isoquinolin-1-one]"

# — patent US7795278B2 (sanofi-aventis Deutschland GmbH, priority 2004, dated 2010)
